In US6399105B1, “Sea cucumber carotenoid lipid fraction products and methods of use” (priority 2000, dated 2002):

How the values were obtained:
[1] = system: leukotriene synthesis in human neutrophils; test: Leukotriene activation/synthesis assay in human neutrophils (method of Betts); format: cell-based
From the text: In a leukotriene activation assay showing the effect of plastochromanol-8 on leukotriene synthesis expressed as a percentage of a methanol control in human neutrophils, by the method of Betts (1997), plastochromanol-8 inhibited activation of 5-HETE by approximately 60 percent, LTB4 by approximately 40 percent, and two of the 6-trans isomers of LTB4 (6-trans-leukotriene B4 and 6-trans-12-epileukotriene B4), by 75%. In a related assay of the effect of plastochromanol-8 on leukotriene synthesis expressed as leukotriene synthesis per 10^6 PMN, plastochromanol-8 inhibited the production of 5-HETE by approximately 75%, LTB4 by 50%, and the two trans-6 isomers of LTB4 by approximately 80%. In similar assays with human platelets, plastochromanol-8 inhibited 12-HETE synthesis by approximately 80%.

12-lipoxygenase = biological target: T1, 12-lipoxygenase (Homo sapiens, UniProt P18054); test: 12-HETE assay using human platelets; format: cell-based
T1 construct: assayed by the method similar to the assay for 5-lipoxygenase by using human platelets; endogenous in cells; host or cells: human platelets (mixed with polymorphonuclear leukocytes, challenged with A23187)
T1 sequence (P18054 1-663): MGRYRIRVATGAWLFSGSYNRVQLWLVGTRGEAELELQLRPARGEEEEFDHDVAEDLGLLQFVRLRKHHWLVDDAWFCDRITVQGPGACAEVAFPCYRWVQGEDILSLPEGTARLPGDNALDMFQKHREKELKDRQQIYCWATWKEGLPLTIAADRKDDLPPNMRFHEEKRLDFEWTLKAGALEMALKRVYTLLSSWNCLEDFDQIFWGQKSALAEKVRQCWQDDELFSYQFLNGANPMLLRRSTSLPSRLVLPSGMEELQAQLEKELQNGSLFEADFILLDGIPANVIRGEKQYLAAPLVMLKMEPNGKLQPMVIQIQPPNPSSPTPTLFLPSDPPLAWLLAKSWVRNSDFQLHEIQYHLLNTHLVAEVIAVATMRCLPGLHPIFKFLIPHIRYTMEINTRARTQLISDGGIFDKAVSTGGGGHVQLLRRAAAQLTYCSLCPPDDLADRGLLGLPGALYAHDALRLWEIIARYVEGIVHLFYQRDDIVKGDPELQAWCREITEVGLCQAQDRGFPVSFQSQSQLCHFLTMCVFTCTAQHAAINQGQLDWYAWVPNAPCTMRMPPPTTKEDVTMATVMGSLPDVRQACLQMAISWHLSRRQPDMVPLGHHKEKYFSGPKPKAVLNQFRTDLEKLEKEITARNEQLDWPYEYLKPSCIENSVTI
Method: RED OIL and GOLD OIL were assayed by the method similar to the assay for 5-lipoxygenase by using human platelets. Polymorphonuclear leukocytes were mixed, challenged with A23187, and 12-HETE production was measured by high pressure liquid chromatography (HPLC). Addition of a 1:10,000 dilution of RED OIL to the reaction yielded 12-HETE levels that were 65% that of methanolic controls, while A 1:1000 dilution of GOLD OIL yielded levels that were 46% of controls.

5-lipoxygenase (5-LO) = biological target: T2, 5-lipoxygenase (5-LO) (Homo sapiens, UniProt P09917); test: 5-Lipoxygenase assay in human PMNs (LTB4, isomers, 5-HETE by HPLC); format: cell-based; conditions: human neutrophils
T2 construct: Human PMNs isolated by standard procedures from a normal volunteer were prewarmed to 37° C; endogenous in cells; host or cells: human polymorphonuclear leukocytes (neutrophils) from a normal volunteer
T2 sequence (P09917 1-674): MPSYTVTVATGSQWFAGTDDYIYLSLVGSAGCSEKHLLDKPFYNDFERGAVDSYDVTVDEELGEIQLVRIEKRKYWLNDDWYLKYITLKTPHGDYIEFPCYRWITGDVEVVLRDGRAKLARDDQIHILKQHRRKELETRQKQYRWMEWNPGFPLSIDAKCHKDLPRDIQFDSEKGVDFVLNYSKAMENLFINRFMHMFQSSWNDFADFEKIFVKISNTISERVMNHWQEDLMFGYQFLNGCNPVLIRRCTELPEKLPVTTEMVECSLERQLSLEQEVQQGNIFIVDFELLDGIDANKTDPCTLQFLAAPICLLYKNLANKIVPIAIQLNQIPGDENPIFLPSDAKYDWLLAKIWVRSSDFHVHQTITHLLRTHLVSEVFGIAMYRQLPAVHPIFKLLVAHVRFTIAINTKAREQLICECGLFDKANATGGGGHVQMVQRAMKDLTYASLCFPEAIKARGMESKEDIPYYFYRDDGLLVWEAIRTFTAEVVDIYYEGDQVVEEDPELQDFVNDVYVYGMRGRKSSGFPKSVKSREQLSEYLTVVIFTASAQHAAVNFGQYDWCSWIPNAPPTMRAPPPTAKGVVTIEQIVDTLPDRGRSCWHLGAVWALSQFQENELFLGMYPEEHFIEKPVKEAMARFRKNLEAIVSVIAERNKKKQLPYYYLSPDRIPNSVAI
From the text: 5-lipoxygenase (5-LO) is a key enzyme in the metabolism of arachidonic acid (AA) to leukotriene B4 (LTB4) and hydroxyeicosatetraenoic acid (5-HETE) it a wide variety of cells. including polymorphonuclear (PMN) leukocytes (Henderson, 1994) and has recently been linked to prostate and other cancers (Ghosh and Myers, 1997). LTB4 is a chemotaxic signaling agent involved in the migration of PMNs from the blood stream to sites of tissue injury, which is a hallmark of the inflammatory response. Human PMNs isolated by standard procedures from a normal volunteer were prewarmed to 37° C. and, at time=0, 10 μL of test compounds suspended in methanol by sonication, or methanol alone, were added to 1 mL of the PMN suspension. At t=10 min, […] of 2 mM AA were added to each suspension as the 5-LO substrate. At t=14 min, the calcium ionophore A23187 ([…], 1 mM) was added to activate the enzyme. The reaction was terminated at t=19 minutes by 100 μL of 100 mM citric acid, maintaining a pH of 3.0. Prostaglandin B2 and 15-HETE were added as internal standards for high pressure liquid chromatography (HPLC) quantification of LTB, and 5-HETE, respectively. Metabolites and standards were extracted from the suspension with chloroform/methanol (7:3). […] Metabolites were detected by ultraviolet light and quantified against standard curves. […]

[2] = system: PC3, MCF7, HT29 or BRO cell lines; test: Anti-cancer assays, MTT viable dye method, 72 hr; format: cell-based; conditions: human cancer cell lines
Method: RED OIL and GOLD OIL and various thin-layer chromatographic fractions have been tested against human cancer cell lines in vitro. Materials were initially dissolved in dimethyl sulfoxide and then diluted in tissue culture media. Aliquots of 23 μg/mL were then applied to PC3 (human prostate), MCF7 (human breast adenocarcinoma), HT29 (human colon adenocarcinoma) or BRO (human melanoma) cell lines. These fractions mediated inhibition of cell growth relative to untreated control cells as assessed after 72 hr by the MTT viable dye method as is commonly used by those skilled in the arts. […] One such fraction isolated from sea cucumber lipid phase by the method of Findlay et al. (1983b), plastochromanol-8, was considered to be promising in that values of 20-50 μg/mL were determined as IC50 values (that concentration inhibiting 50% of cell growth). […] Plastochromanol-8 was also shown to be inhibitory of the 12-Lipoxygenase pathway in human platelets.

[3] = system: adjuvant induced arthritis; test: Adjuvant induced arthritis assay in rats; format: in vivo, rat; conditions: 10 mg/kg orally once per day for 7 days; for Mean Paw Wt.: 6 rats; for % Anti-inflammatory Response: (control - test)/test x 100
[4] = leukotriene synthesis as percentage of methanol control
[5] = leukotriene synthesis per 10^6 PMN

## CC(C)=CCC/C(C)=C/CC/C(C)=C/CC/C(C)=C/CC/C(C)=C/CC/C(C)=C/CC/C(C)=C/CC/C(C)=C/CC[C@]1(C)CCc2cc(O)c(C)c(C)c2O1 [plastochromanol-8]
[1]; [4]
  inhibition of 5-HETE: approximately 60%
  inhibition of 6-trans-leukotriene B4 and 6-trans-12-epileukotriene B4: 75%
  inhibition of LTB4: approximately 40%
[1]; [5]
  inhibition of production of 5-HETE: approximately 75%
  inhibition of production of LTB4: 50%
  inhibition of production of the two trans-6 isomers of LTB4: approximately 80%
12-lipoxygenase
  inhibition of 12-HETE synthesis: approximately 80%
  inhibition of 12-lipoxygenase pathway, in words: inhibitory
5-lipoxygenase (5-LO)
  inhibition of 5-lipoxygenase metabolite synthesis (LTB4, isomers, 5-HETE), in words: dramatic inhibitor
[2]
  IC50 (concentration inhibiting 50% of cell growth): 20 to 50 µg/mL

## C[C@]12CCC(=O)C=C1CC[C@@H]1[C@@H]2[C@@H](O)C[C@@]2(C)[C@H]1CC[C@]2(O)C(=O)CO [Hydrocortisone]
[3]
  Mean Paw Wt.: 0.61 gm
  % Anti-inflammatory Response: 59.0%

## CCCCC1C(=O)N(c2ccccc2)N(c2ccccc2)C1=O [Phenylbutazone]
[3]
  Mean Paw Wt.: 0.38 gm
  % Anti-inflammatory Response: 155.3%
